Experimental data taken from patent US12660819B2, “Herbicidal derivatives” (SYNGENTA CROP PROTECTION AG, priority 2020, dated 2026).

Legend:
Format in all cases: in vivo
Solanum nigrum (SOLNI) [1] = experiment: Pre-emergence Test (glasshouse, percentage damage to the plant); conditions: 1000 g/ha unless otherwise stated, five-point scale
Lolium perenne (LOLPE) [2] = experiment: as above; conditions: 1000 g/ha unless otherwise stated, five-point scale
[3] = tested on: Echinochloa crus-galli (ECHCG); experiment: Post-emergence Test (glasshouse, percentage damage to the plant); conditions: post-emergence spray, 1000 g/ha unless otherwise stated, evaluated after 13 days
Procedure, shortened: (§1)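 Damage was rated 13 days after treatment and expressed on a five-point scale: 5=81-100%, 4=61-80%, 3=41-60%, 2=21-40%, 1=0-20%. Spray was applied at 1000 g/ha unless otherwise stated, from acetone/water (50:50) with 0.5% Tween 20, to sown pots.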

Solanum nigrum (SOLNI) [4] = experiment: as above; conditions: post-emergence spray, 1000 g/ha unless otherwise stated, evaluated after 13 days
Procedure, shortened: as §1

[5] = tested on: Amaranthus retoflexus (AMARE); experiment: as above; conditions: post-emergence spray, 1000 g/ha unless otherwise stated, evaluated after 13 days
Procedure, shortened: as §1

Setaria faberi (SETFA) [6] = experiment: as above; conditions: post-emergence spray, 1000 g/ha unless otherwise stated, evaluated after 13 days
Procedure, shortened: (§2)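 Percentage damage to the plant, assessed 13 days after application and scored 1–5 in 20% bands. Pots sown in standard soil received compound at 1000 g/ha unless otherwise stated, sprayed under 24/16 °C, 14 h light, 65% humidity.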

[7] = tested on: Ipomoea hederacea (IPOHE); experiment: as above; conditions: post-emergence spray, 1000 g/ha unless otherwise stated, evaluated after 13 days
Procedure, shortened: as §2

Lolium perenne (LOLPE) [8] = experiment: as above; conditions: post-emergence spray, 1000 g/ha unless otherwise stated, evaluated after 13 days
Procedure, shortened: as §1

Setaria faberi (SETFA) [9] = experiment: Pre-emergence Test (glasshouse, percentage damage to the plant); conditions: 1000 g/ha unless otherwise stated, five-point scale
[10] = tested on: Amaranthus retoflexus (AMARE); experiment: as above; conditions: 1000 g/ha unless otherwise stated, five-point scale
[11] = tested on: Echinochloa crus-galli (ECHCG); experiment: as above; conditions: 1000 g/ha unless otherwise stated, five-point scale
[12] = tested on: Ipomoea hederacea (IPOHE); experiment: as above; conditions: 1000 g/ha unless otherwise stated, five-point scale

Row | Compound | percentage damage to the plant, SOLNI (Solanum nigrum (SOLNI) [1]) | percentage damage to the plant, LOLPE (Lolium perenne (LOLPE) [2]) | Post-emergence Test ECHCG, percentage damage to the plant (five-point scale) [3] | Post-emergence Test SOLNI, percentage damage to the plant (five-point scale) (Solanum nigrum (SOLNI) [4]) | Post-emergence Test AMARE, percentage damage to the plant (five-point scale) [5] | Post-emergence Test SETFA, percentage damage to the plant (five-point scale) (Setaria faberi (SETFA) [6]) | Post-emergence Test IPOHE, percentage damage to the plant (five-point scale) [7] | Post-emergence Test LOLPE, percentage damage to the plant (five-point scale) (Lolium perenne (LOLPE) [8]) | percentage damage to the plant, SETFA (Setaria faberi (SETFA) [9]) | percentage damage to the plant, AMARE [10] | percentage damage to the plant, ECHCG [11] | percentage damage to the plant, IPOHE [12]
1 | CCn1c(C)c(-c2ccc(F)cc2)c(=O)c(C(=O)O)c1-c1ccc(Cl)c(Cl)c1 [Compound 11, 2-(3,4-dichlorophenyl)-1-ethyl-5-(4-fluorophenyl)-6-methyl-4-oxo-pyridine-3-carboxylic acid] | 5 (5=81-100%) | 1 (1=0-20%) | 4 (4=61-80%) | 5 (5=81-100%) | 4 (4=61-80%) | 4 (4=61-80%) | 4 (4=61-80%) | 2 (2=21-40%) | 5 (5=81-100%) | 5 (5=81-100%) | 5 (5=81-100%) | 2 (2=21-40%)
2 | CCn1c(C)c(-c2ccccc2)c(=O)c(C(=O)O)c1-c1ccc(Cl)c(Cl)c1 [Compound 24, 2-(3,4-dichlorophenyl)-1-ethyl-6-methyl-4-oxo-5-phenyl-pyridine-3-carboxylic acid] | 5 (5=81-100%) | 2 (2=21-40%) | 3 (3=41-60%) | 5 (5=81-100%) | 4 (4=61-80%) | 4 (4=61-80%) | 4 (4=61-80%) | 4 (4=61-80%) | 1 (1=0-20%) | 1 (1=0-20%) | 2 (2=21-40%) | 4 (4=61-80%)
3 | CCn1c(C)c(-c2cccnc2)c(=O)c(C(=O)O)c1-c1ccc(Cl)c(Cl)c1 [Compound 19, 2-(3,4-dichlorophenyl)-1-ethyl-6-methyl-4-oxo-5-(3-pyridyl)pyridine-3-carboxylic acid] | 1 (1=0-20%) | 1 (1=0-20%) | 5 (5=81-100%) | 5 (5=81-100%) | 4 (4=61-80%) | 4 (4=61-80%) | 4 (4=61-80%) | 3 (3=41-60%) | 1 (1=0-20%) | 1 (1=0-20%) | 1 (1=0-20%) | 1 (1=0-20%)
4 | Cc1c(-c2ccc(Cl)cc2)c(=O)c(C(=O)O)c(-c2ccc(Cl)c(Cl)c2)n1C [Compound 5, 5-(4-chlorophenyl)-2-(3,4-dichlorophenyl)-1,6-dimethyl-4-oxo-pyridine-3-carboxylic acid] | 4 (4=61-80%) | 4 (4=61-80%) | 5 (5=81-100%) | 2 (2=21-40%) | 3 (3=41-60%) | 5 (5=81-100%) | 3 (3=41-60%) | 1 (1=0-20%) | 4 (4=61-80%) | 4 (4=61-80%) | 4 (4=61-80%) | 4 (4=61-80%)
5 | CCn1c(C)c(-c2ccnnc2)c(=O)c(C(=O)O)c1-c1ccc(Cl)c(Cl)c1 [Compound 35, 2-(3,4-dichlorophenyl)-1-ethyl-6-methyl-4-oxo-5-pyridazin-4-yl-pyridine-3-carboxylic acid;2,2,2-trifluoroacetic acid, 2,2,2-trifluoroacetate] | 1 (1=0-20%) | 1 (1=0-20%) | 2 (2=21-40%) | 1 (1=0-20%) | 1 (1=0-20%) | 2 (2=21-40%) | 1 (1=0-20%) | 1 (1=0-20%) | 1 (1=0-20%) | 1 (1=0-20%) | 1 (1=0-20%) | 1 (1=0-20%)
6 | CCn1c(C)c(-c2ccc(F)c(Cl)c2)c(=O)c(C(=O)O)c1-c1ccc(Cl)c(Cl)c1 [Compound 22, 5-(3-chloro-4-fluoro-phenyl)-2-(3,4-dichlorophenyl)-1-ethyl-6-methyl-4-oxo-pyridine-3-carboxylic acid] | 2 (2=21-40%) | 2 (2=21-40%) | 2 (2=21-40%) | 4 (4=61-80%) | 5 (5=81-100%) | 4 (4=61-80%) | 3 (3=41-60%) | 2 (2=21-40%) | 3 (3=41-60%) | 2 (2=21-40%) | 1 (1=0-20%) | 1 (1=0-20%)
7 | CCn1c(C)c(-c2cccnc2F)c(=O)c(C(=O)O)c1-c1ccc(Cl)c(Cl)c1 [Compound 6, 2-(3,4-dichlorophenyl)-1-ethyl-5-(2-fluoro-3-pyridyl)-6-methyl-4-oxo-pyridine-3-carboxylic acid] | 3 (3=41-60%) | 4 (4=61-80%) | 4 (4=61-80%) | 3 (3=41-60%) | 4 (4=61-80%) | 4 (4=61-80%) | 1 (1=0-20%) | 4 (4=61-80%) | 5 (5=81-100%) | 4 (4=61-80%) | 4 (4=61-80%) | 1 (1=0-20%)
8 | CCn1c(C)c(-c2ccnc(F)c2)c(=O)c(C(=O)O)c1-c1ccc(Cl)c(Cl)c1 [Compound 17, 2-(3,4-dichlorophenyl)-1-ethyl-5-(2-fluoro-4-pyridyl)-6-methyl-4-oxo-pyridine-3-carboxylic acid] | 3 (3=41-60%) | 3 (3=41-60%) | 4 (4=61-80%) | 3 (3=41-60%) | 4 (4=61-80%) | 4 (4=61-80%) | 4 (4=61-80%) | 4 (4=61-80%) | 5 (5=81-100%) | 1 (1=0-20%) | 3 (3=41-60%) | 1 (1=0-20%)
